Measured values from patent US9540381B2, “Anti-angiogenesis compound, intermediate and use thereof” (Guangzhou KangRui Biological Pharmaceutical Technology Co., …, priority 2013, dated 2017).
“Also recorded” adds a separate entry of the source.

Tests used:
PKC-α = biological target: T1, PKC-α (Homo sapiens, UniProt P17252); assay: Inhibition specificity, PKC-α; format: biochemical; details: 5000 nM, average of two tests; read-out: Average Inhibition Rate (%) PKC-α
T1 construct: purchased INVITROGEN

AKT2 = biological target: T2, AKT2 (Homo sapiens, UniProt P31751); assay: Inhibition specificity, AKT2; format: biochemical; details: 5000 nM, average of two tests; read-out: Average Inhibition Rate (%) AKT2
T2 construct: purchased INVITROGEN

corneal angiogenesis [1] = assay: Rabbit corneal chemical burn model; format: in vivo, white rabbits; details: 100 uM subconjunctival injection then drops twice a day, 7 days
Procedure: This test tested in total 5 white rabbits who were 5-6 month old. After narcotizing, in the center of the cornea, the right eye was treated with a 6 mm diameter of round filter paper which was soaked with 0.1M NaOH, induced for 3 min to produce chemical burn modeling.

CDK2 = biological target: T3, CDK2 (Homo sapiens, UniProt P24941); assay: Inhibition specificity, CDK2; format: biochemical; details: 5000 nM, average of two tests; read-out: Average Inhibition Rate (%) CDK2
T3 construct: purchased UPSTATE

SYK = biological target: T4, SYK (Homo sapiens, UniProt P43405); assay: Inhibition specificity, SYK; format: biochemical; details: 5000 nM, average of two tests; read-out: Average Inhibition Rate (%) SYK
T4 construct: purchased BPS

MAPK3 = biological target: T5, MAPK3 (Homo sapiens, UniProt P27361); assay: Inhibition specificity, MAPK3; format: biochemical; details: 5000 nM, average of two tests; read-out: Average Inhibition Rate (%) MAPK3
T5 construct: purchased INVITROGEN

PDGFR-β = biological target: T6, PDGFR-β (Homo sapiens, UniProt P09619); assay: Kinase inhibition dosage effect, PDGFR-β; format: biochemical; details: for IC50: [ATP] 30 μM, 3 hr; for Hill PDGFR-β: dose-effect curve fit
T6 construct: purchased Upstate

CHEK1 = biological target: T7, CHEK1 (Homo sapiens, UniProt O14757); assay: Inhibition specificity, CHEK1; format: biochemical; details: 5000 nM, average of two tests; read-out: Average Inhibition Rate (%) CHEK1
T7 construct: purchased CARNA

GSK-3-β = biological target: T8, GSK-3-β (Homo sapiens, UniProt P49841); assay: Inhibition specificity, GSK-3-β; format: biochemical; details: 5000 nM, average of two tests; read-out: Average Inhibition Rate (%) GSK-3-β
T8 construct: purchased UPSTATE

PI3K-α = biological target: T9, PI3K-α (Homo sapiens, UniProt P42336); assay: Inhibition specificity, PI3K-α (ADP-Glo); format: biochemical; details: 5000 nM, average of two tests; read-out: Average Inhibition Rate (%) PI3K-α
T9 construct: purchased INVITROGEN

JAK2 = biological target: T10, JAK2 (Homo sapiens, UniProt O60674); assay: Inhibition specificity, JAK2; format: biochemical; details: 5000 nM, average of two tests; read-out: Average Inhibition Rate (%) JAK2
T10 construct: purchased INVITROGEN

corneal angiogenesis [2] = assay: Mice corneal chemical burn model; details: 100 uM subconjunctival injection then drops twice a day, 7 days
choroidal angiogenesis = assay: Laser-induced choroidal angiogenesis (CNV) animal model; format: in vivo, c57/BL mice; details: 1 uM injected into the eye after laser, 5 days
Procedure: The […]57/BL (Jax Lab, US), and the experiment is conducted on laser-induced Choroidal Angiogenesis (CNV) animal model. This model is a widely used animal model used for studying the influence of a medicament on CNV development of wet macular degeneration. […] Only the laser points, which were observed as bubble indicating the fracture of Bruch membrane, were considered to be studied. Inject immediately after laser implementation: the right eye was injected 1 uM compound 2-2, and the left eye was injected PBS having the same volume as the medicament as a control. Kill the animal 5 days after injection and obtain the eyeball. After removing the anterior segment, vitreous body and retina, prepare flat mounts of choroid and meanwhile dye with isolectin. Take photos by Zeiss fluorescence microscope system and measure CNV area.

T6 sequence (P09619 33-1106, species assumed): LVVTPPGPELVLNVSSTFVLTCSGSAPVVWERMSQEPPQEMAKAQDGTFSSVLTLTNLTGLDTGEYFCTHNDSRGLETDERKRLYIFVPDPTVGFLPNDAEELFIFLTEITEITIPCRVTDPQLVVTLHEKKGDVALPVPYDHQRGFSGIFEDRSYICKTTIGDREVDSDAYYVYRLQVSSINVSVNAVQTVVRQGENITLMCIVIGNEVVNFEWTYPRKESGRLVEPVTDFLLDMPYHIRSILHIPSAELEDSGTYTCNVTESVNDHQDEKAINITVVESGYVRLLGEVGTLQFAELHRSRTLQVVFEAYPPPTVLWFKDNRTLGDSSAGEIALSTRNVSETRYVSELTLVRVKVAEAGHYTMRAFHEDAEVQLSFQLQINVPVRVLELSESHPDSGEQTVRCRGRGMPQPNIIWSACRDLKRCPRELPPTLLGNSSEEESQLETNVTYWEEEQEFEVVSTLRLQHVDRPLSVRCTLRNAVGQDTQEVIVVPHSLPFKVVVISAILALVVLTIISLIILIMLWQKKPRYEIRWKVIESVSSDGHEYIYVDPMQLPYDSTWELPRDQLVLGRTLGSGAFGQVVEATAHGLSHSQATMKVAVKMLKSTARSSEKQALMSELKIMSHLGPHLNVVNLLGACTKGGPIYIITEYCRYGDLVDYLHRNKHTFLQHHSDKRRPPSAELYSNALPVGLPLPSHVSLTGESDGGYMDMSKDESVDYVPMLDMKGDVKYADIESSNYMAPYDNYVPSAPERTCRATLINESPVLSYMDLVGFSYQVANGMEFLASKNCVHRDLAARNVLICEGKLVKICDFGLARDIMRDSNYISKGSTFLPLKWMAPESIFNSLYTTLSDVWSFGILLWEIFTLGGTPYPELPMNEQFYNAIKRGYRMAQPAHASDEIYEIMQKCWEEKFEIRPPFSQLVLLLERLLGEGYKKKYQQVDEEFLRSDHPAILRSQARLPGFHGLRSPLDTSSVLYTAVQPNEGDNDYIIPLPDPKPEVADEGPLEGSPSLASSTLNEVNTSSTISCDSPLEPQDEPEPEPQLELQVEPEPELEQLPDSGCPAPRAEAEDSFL
T8 sequence (P49841 whole entry, species assumed): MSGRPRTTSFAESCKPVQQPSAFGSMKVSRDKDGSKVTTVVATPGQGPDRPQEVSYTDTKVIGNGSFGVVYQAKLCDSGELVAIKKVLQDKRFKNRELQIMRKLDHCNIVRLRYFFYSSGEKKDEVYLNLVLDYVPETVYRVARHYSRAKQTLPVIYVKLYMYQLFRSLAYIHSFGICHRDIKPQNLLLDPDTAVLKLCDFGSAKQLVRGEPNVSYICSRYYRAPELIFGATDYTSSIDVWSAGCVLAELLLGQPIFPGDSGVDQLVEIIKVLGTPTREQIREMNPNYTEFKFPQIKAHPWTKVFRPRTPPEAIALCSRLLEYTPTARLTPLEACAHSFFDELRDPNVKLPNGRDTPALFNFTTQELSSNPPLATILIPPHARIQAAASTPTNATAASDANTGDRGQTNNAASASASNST
T10 sequence (O60674 whole entry, species assumed): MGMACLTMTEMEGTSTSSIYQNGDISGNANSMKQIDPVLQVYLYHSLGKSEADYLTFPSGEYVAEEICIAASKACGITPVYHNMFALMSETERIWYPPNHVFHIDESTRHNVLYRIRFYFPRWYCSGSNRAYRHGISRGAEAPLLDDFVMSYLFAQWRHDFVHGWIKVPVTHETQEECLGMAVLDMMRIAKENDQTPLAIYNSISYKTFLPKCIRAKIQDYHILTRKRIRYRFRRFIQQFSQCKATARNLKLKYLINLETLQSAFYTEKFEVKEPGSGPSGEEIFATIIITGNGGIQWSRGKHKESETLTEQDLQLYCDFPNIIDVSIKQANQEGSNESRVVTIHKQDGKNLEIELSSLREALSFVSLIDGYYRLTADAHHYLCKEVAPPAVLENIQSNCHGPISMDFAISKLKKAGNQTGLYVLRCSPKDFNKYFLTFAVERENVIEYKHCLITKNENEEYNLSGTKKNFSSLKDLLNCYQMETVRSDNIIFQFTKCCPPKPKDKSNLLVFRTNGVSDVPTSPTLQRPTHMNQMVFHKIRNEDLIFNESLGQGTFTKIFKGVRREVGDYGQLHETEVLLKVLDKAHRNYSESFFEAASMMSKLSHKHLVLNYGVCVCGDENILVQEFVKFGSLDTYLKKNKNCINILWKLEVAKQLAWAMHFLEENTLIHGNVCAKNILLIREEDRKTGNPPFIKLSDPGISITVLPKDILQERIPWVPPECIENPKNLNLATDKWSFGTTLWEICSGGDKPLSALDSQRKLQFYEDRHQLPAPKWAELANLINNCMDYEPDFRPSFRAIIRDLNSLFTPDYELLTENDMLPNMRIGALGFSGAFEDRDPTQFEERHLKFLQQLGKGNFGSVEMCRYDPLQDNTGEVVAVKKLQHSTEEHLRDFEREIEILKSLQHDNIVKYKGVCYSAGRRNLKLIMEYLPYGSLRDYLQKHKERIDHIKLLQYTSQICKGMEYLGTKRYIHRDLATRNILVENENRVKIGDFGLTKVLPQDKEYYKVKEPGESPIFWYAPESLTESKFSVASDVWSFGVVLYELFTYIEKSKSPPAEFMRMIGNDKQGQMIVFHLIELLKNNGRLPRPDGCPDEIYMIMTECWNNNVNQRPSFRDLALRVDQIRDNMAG
T7 sequence (O14757 whole entry, species assumed): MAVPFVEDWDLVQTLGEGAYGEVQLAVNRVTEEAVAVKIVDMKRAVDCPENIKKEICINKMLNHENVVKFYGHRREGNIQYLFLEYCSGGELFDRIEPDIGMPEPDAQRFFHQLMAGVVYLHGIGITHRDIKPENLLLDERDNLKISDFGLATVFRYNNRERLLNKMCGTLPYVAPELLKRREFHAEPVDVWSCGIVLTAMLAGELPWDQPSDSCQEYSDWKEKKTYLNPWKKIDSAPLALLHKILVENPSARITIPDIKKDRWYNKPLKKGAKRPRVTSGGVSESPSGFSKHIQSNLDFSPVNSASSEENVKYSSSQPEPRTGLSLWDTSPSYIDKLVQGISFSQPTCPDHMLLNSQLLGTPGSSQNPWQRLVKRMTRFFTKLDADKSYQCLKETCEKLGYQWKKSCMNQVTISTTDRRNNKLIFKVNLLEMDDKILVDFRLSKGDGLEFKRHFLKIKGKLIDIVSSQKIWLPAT
T5 sequence (P27361 whole entry): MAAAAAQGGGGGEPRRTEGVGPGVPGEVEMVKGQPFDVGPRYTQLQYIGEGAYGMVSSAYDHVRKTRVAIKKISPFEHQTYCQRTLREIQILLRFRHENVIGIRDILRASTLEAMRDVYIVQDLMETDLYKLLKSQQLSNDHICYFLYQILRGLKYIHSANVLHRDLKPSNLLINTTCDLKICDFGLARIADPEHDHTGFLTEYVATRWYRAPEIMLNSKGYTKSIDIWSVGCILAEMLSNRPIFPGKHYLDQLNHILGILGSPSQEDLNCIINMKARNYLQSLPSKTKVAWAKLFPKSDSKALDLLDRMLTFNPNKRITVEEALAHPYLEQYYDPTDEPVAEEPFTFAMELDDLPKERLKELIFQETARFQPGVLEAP
T2 sequence (P31751 whole entry, species assumed): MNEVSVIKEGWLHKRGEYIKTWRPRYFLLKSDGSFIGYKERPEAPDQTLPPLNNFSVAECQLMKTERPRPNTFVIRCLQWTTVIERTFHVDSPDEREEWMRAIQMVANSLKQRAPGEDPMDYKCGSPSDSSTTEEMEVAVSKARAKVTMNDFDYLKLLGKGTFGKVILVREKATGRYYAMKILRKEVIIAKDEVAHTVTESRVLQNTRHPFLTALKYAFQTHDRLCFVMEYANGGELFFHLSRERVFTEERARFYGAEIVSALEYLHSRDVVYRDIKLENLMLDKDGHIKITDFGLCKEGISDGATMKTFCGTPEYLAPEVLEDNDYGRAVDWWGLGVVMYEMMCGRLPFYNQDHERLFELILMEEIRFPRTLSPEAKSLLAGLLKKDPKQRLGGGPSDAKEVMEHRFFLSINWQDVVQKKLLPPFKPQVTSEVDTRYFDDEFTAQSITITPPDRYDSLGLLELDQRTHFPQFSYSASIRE

inhibition at 5 µM (PKC-α) [%]	inhibition at 5 µM (AKT2) [%]	inhibition at 5 µM (CDK2) [%]	inhibition at 5 µM (SYK) [%]	inhibition at 5 µM (MAPK3) [%]	inhibition activity on PDGFR-β (in words) (PDGFR-β)	IC50 (PDGFR-β) [µM]	Inhibition Rate on PDGFR-β (%) (PDGFR-β; concentration 0.0002823 (uM))	Inhibition Rate on PDGFR-β (%) (PDGFR-β; concentration 0.0008468 (uM))	Inhibition Rate on PDGFR-β (%) (PDGFR-β; concentration 0.0025403 (uM))	Inhibition Rate on PDGFR-β (%) (PDGFR-β; concentration 0.0076208 (uM))	Inhibition Rate on PDGFR-β (%) (PDGFR-β; concentration 0.0228624 (uM))	Inhibition Rate on PDGFR-β (%) (PDGFR-β; concentration 0.0685871 (uM))	Inhibition Rate on PDGFR-β (%) (PDGFR-β; concentration 0.2057613 (uM))	Inhibition Rate on PDGFR-β (%) (PDGFR-β; concentration 0.6172840 (uM))	Inhibition Rate on PDGFR-β (%) (PDGFR-β; concentration 1.8518519 (uM))	Inhibition Rate on PDGFR-β (%) (PDGFR-β; concentration 5.5555556 (uM))	Inhibition Rate on PDGFR-β (%) (PDGFR-β; concentration 16.6666667 (uM))	Inhibition Rate on PDGFR-β (%) (PDGFR-β; concentration 50 (uM))	Structure (SMILES)	effect on corneal angiogenesis (in words, FIG. 12) (corneal angiogenesis [1])	other results
-0.01	1.35	3.75	-2.15	1.44	good inhibition activity	1.94	0.72	2.69	0.80	1.43	7.89	10.09	12.85	23.86	46.85	73.86	86.35	85.78	Nc1cc(Oc2ccc3c(C(=O)Nc4cccc(C(F)(F)F)c4)cccc3n2)ncn1 [Compound 2-1]	obviously reduces corneal angiogenesis	Hill PDGFR-β (PDGFR-β): 1.09; inhibition at 5 µM (CHEK1): 2.54%; inhibition at 5 µM (GSK-3-β): -0.57%; inhibition at 5 µM (PI3K-α): 6.78%; inhibition at 5 µM (JAK2): ~21%
2.63	-1.2	2.02	-5.87	1.12	good inhibition activity	0.15	0.62	0.49	−0.84	2.85	15.13	34.21	55.90	78.29	91.57	96.43	97.95	98.80	Nc1nccc(Oc2ccc3c(C(=O)Nc4cccc(C(F)(F)F)c4)cccc3n2)n1 [Compound 2-2]	obviously reduces corneal angiogenesis	effect on corneal angiogenesis and bleeding (in words, FIG. 11) (corneal angiogenesis [2]): obviously reduces angiogenesis and bleeding; inhibition of choroidal angiogenesis (in words, FIG. 9) (choroidal angiogenesis): could obviously inhibit the choroidal angiogenesis; also recorded: obviously inhibiting choroidal angiogenesis; Hill PDGFR-β (PDGFR-β): 0.92; inhibition at 5 µM (CHEK1): 0.695%; inhibition at 5 µM (GSK-3-β): 0.555%; inhibition at 5 µM (PI3K-α): -7.1%; inhibition at 5 µM (JAK2): 7.83%
